The text below walks through data of patent publication US8987189B2, “Treating hepatitis C virus infection” (Board of Regents, The University of Texas System, priority 2007, dated 2015).

One data set deals with genotype 2a HCV. Description: HCV release assay in Huh7-GL cells (HCV RNA copy number and titer in medium, intracellular HCV RNA). The format is cell-based, hepatitis C virus. The conditions noted are these: for cellular release of virus (HCV RNA copy numbers and titers in the media): Huh7-GL cells, 1 nM, 10 nM, 100 nM and 500 nM, 16 hr then 4 hours in serum-free medium. How it is done: (§1) Huh7-GL cells were incubated in the absence or presence of the MTP inhibitor […]. Following incubation in serum-free medium, culture medium was harvested and the amount of HCV RNA, HCV titer, and apoB in the medium was measured.
Huh7-GL cells are cultured as described in Example 2. On day 1, the cells are treated with 1 nM, 10 nM, 100 nM, and 500 nM of the following MTP inhibitors: BMS-201038 (positive control), BMS-200150, BMS-212122, BMS-197636, JTT-130, Implitapide, mitratapide, and CP-346086. 16 hr later on day 2, cells are switched to serum-free medium in the absence or presence of the same amount of the MTP inhibitor.

The conditions of data set [1]: previous clinical trials; cited from earlier work.
Another data set concerns apoB. Kind of data set: apoB mRNA and apoB secretion in Huh7-GL cells. The format is cell-based, human. The conditions noted are these: Huh7-GL cells incubated with MTP inhibitor, serum-free medium. How it is done: We transfected Huh7-GL cells, a line of Huh7 cells that contain a chromosomally integrated genotype 2a HCV cDNA and constitutively produce infectious virus (Cai et al., 2005), with a duplex siRNA targeting apoB or GFP as a control. Following incubation in serum-free medium, culture medium was harvested and the amount of apoB and HCV in the medium was analyzed. […] In control cells transfected with the GFP siRNA, the HCV copy number and titer increased by more than 10 fold during the period of 4-hr incubation. In cells receiving the apoB siRNA, this increase was reduced by about 50% as assayed by viral copy number, and 70% as assayed by the viral titer.
as §1

The test system of the next data set is HCV. Description: Randomized, double-blind, placebo-controlled trial in patients with chronic HCV infection. The conditions noted are these: 0.15 mg per kilogram twice daily, 12-week course. How it is done:
Patients are recruited and are eligible for enrollment if they are positive for HCV RNA on serologic testing after at least 3 months of interferon therapy. Patients who can not tolerate interferon because of severe side effects, such as fatigue, neuropsychiatric disturbances, or thrombocytopenia, are also included.
Physicians and patients are blinded to treatment assignments. Patients are evaluated every 3 weeks for compliance, which is assessed by pill count, and for the development of adverse reactions. […] At each evaluation visit, a complete blood count is done and serum levels of electrolytes, blood urea nitrogen, creatinine, aspartate aminotransferase, alanine aminotransferase, albumin, and total bilirubin are measured. Titers of serum HCV RNA are assessed before enrollment, at each evaluation visit, and 6 weeks after the final dose by using a […] multicycle reverse transcription polymerase chain reaction method. Titers are calculated up to 5 million copies/mL; if a titer is greater than 5 million copies/mL, it is simply reported as such and the exact value is not given.

Setting [2] is: Huh7-GL cells incubated with MTP inhibitor vs absence of inhibitor.

Consider `CCCNC(=O)C1(CCCCN2CCC(N3Cc4ccccc4C3=O)CC2)c2ccccc2-c2ccccc21` [BMS-197636], for which the “cellular release of virus (HCV RNA copy numbers and titers in the media)” value (from here on “cellular release of virus”) in the data set on genotype 2a HCV is on record as “decreases in cellular release of virus”.
`O=C1c2ccccc2CN1C1CCN(CCC(c2ccccc2)c2ccccc2)CC1` [BMS-200150]: in the data set on genotype 2a HCV, the “cellular release of virus” value was “decreases in cellular release of virus”.
On to `O=C(NC1CCN(CCCCC2(C(=O)NCC(F)(F)F)c3ccccc3-c3ccccc32)CC1)c1ccccc1-c1ccc(C(F)(F)F)cc1` [BMS-201038], for which the “intracellular HCV RNA” value with genotype 2a HCV (Huh7-GL cells in the absence or presence of the MTP inhibitor) is “remained the same”. Moreover, in the data set with genotype 2a HCV (setting [2]), the “reduction of the amount of HCV RNA in the medium” value is given as “about 80%” and the “reduction of viral titer in the medium” value is “about 80%”. The “cellular release of virus” value in the data set with genotype 2a HCV is recorded as “decreases in cellular release of virus”. For the same molecule, in data set [1], the tolerability result is listed as “high tolerability”. Besides, in the data set on apoB, the “secretion of apoB” value is given as “blocked”. In the data set on HCV, the “serum viremia (viral load, aminotransferase levels)” value is “decrease in serum viremia”.
As for `Cc1ccc2c(nc(C)n2CCCCC2(C(=O)NCC(F)(F)F)c3ccccc3-c3ccccc32)c1NC(=O)c1ccccc1-c1ccc(C(F)(F)F)cc1` [BMS-212122], in the data set with genotype 2a HCV, the “cellular release of virus” value was “decreases in cellular release of virus”.
On to `O=C(Nc1ccc2c(c1)CCN(Cc1ncn[nH]1)C2)c1ccccc1-c1ccc(C(F)(F)F)cc1` [CP-346086], for which, in the data set with genotype 2a HCV, the “cellular release of virus” value is “decreases in cellular release of virus”.
Same read-out and setting: then `CCOC(=O)C(COC(=O)Cc1ccc(NC(=O)c2ccccc2-c2ccc(C(F)(F)F)cc2)c(C(=O)N(C)C)c1)(C(=O)OCC)c1ccccc1` [JTT-130], with “decreases in cellular release of virus”.
Still for that read-out and setting: then `CC[C@@H](C)n1ncn(-c2ccc(N3CCN(c4ccc(OC[C@@H]5CO[C@@](CSc6nncn6C)(c6ccc(Cl)cc6)O5)cc4)CC3)cc2)c1=O` [mitratapide], with “decreases in cellular release of virus”; and implitapide, with “decreases in cellular release of virus”.
